The values below come from patent US8338565B2, “Macrocyclic compounds for inhibition of tumor necrosis factor alpha” (Ensemble Therapeutics Corporation, priority 2008, dated 2012).

The structures appear in SMILES notation. Numbered stars: 1 amine (or outer) side, 2 acyl side, 3 side chain; on linkers, the order of the positions; unused ones are H or OH. Bridge positions count the residues as written; N and C are the ends. Square brackets hold non-standard residues; d marks the D form. Peptide text beside a SMILES is read from it. * marks the point of attachment. Tartaroyl(2R,3R-(OAc)2) = CC(=O)O[C@@H](C(=O)[*:1])[C@@H](OC(C)=O)C(=O)[*:2]; Phe(3-CF3) = N[C@@H](Cc1cccc(C(F)(F)F)c1)C(=O)O; Phe(4-CF3) = N[C@@H](Cc1ccc(C(F)(F)F)cc1)C(=O)O; Phe(2,4-Cl2) = N[C@@H](Cc1ccc(Cl)cc1Cl)C(=O)O; Bip = N[C@@H](Cc1ccc(-c2ccccc2)cc1)C(=O)O; dPhe(4-NH2) = Nc1ccc(C[C@@H](N)C(=O)O)cc1; Phe(4-Br) = N[C@@H](Cc1ccc(Br)cc1)C(=O)O; dPhe(2-CN) = N#Cc1ccccc1C[C@@H](N)C(=O)O; Phe(4-NH2) = Nc1ccc(C[C@H](N)C(=O)O)cc1; Ala(2-furyl) = N[C@@H](Cc1ccco1)C(=O)O; dPhe(2-Cl) = N[C@H](Cc1ccccc1Cl)C(=O)O; Maleoyl = O=C(/C=C\C(=O)[*:2])[*:1]; Lys(Me2) = CN(C)CCCC[C@H](N)C(=O)O; d(hPhe) = N[C@H](CCc1ccccc1)C(=O)O; Cha = N[C@@H](CC1CCCCC1)C(=O)O; d2Thi = N[C@H](Cc1cccs1)C(=O)O; NH(CH2)2O(CH2)2NH2 = NCCOCCN*; Suc = O=C(CCC(=O)[*:2])[*:1]; NHCH2CH2OH = OCCN*

The target in the assay is T1, TNFα / TNFα receptor (TNFα R1/Fc) (Homo sapiens, UniProt P01375).
T1 construct: purchased R&D Systems
T1 sequence (P01375 77-233 limits assumed, species assumed): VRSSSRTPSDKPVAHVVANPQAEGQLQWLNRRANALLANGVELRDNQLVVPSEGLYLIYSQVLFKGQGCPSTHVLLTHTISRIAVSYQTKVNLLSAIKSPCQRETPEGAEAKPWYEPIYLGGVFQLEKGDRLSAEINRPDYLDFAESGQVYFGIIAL
Briefly: Inhibition of binding of TNFα to the TNFα receptor (plate ELISA competition). Particulars: Table 2; read-out: Activity (IC50, inhibition of TNFα binding to TNFα R1/Fc). The method in brief:
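Compound dilutions were preincubated 30 min at RT with 8.33 nM TNFα R1/Fc in PBST with 2% DMSO, then added to wells coated with 15 nM TNFα for 30 min. Bound receptor was detected with HRP anti-human Fc and TMB, read as A450.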
In the case of `O=C(O)[C@@H]1Cc2ccc(cc2)NC(=O)[C@H](O)[C@@H](O)C(=O)N[C@H](Cc2cccs2)C(=O)N[C@@H](Cc2ccc(Cl)cc2Cl)C(=O)N[C@H](Cc2ccccc2)C(=O)N1` [Compound 189], the IC50 is over 100 µM.

Turning to `O=C(O)[C@@H]1Cc2ccc(cc2)NC(=O)[C@H](O)[C@@H](O)C(=O)N[C@H](Cc2cccs2)C(=O)N[C@@H](Cc2ccc3ccccc3c2)C(=O)N[C@H](Cc2ccccc2)C(=O)N1` [Compound 190], the IC50 was in the range of 10 to 30 µM.

As for `O=C1CCC(=O)N[C@@H](CC2CCCCC2)C(=O)N[C@@H](Cc2ccc(-c3ccccc3)cc2)C(=O)N[C@H](CCc2ccccc2)C(=O)N[C@H](C(=O)O)Cc2ccc(cc2)N1` [Compound 191] ([Cha][Bip][d(hPhe)][Phe(4-NH2)]-OH; linker N-4 via Suc), the IC50 was under 10 µM.

On to `COC(=O)[C@@H]1Cc2ccc(cc2)NC(=O)CCC(=O)N[C@H](Cc2cccs2)C(=O)N[C@@H](Cc2ccc(-c3ccccc3)cc2)C(=O)N[C@H](Cc2ccccc2)C(=O)N1` [Compound 192] ([d2Thi][Bip][dF][Phe(4-NH2)]-OMe; linker N-4 via Suc), for which the IC50 is under 10 µM.

`NCCOCCNC(=O)[C@@H]1Cc2ccc(cc2)NC(=O)CCC(=O)N[C@H](Cc2cccs2)C(=O)N[C@@H](Cc2ccc(-c3ccccc3)cc2)C(=O)N[C@H](Cc2ccccc2)C(=O)N1` [Compound 193] ([d2Thi][Bip][dF][Phe(4-NH2)]-{NH(CH2)2O(CH2)2NH2}; linker N-4 via Suc): the IC50 was under 10 µM.

Turning to `O=C1CCC(=O)N[C@H](Cc2cccs2)C(=O)N[C@@H](Cc2ccc(-c3ccccc3)cc2)C(=O)N[C@@H](Cc2ccccc2)C(=O)N[C@H](C(=O)O)Cc2ccc(cc2)N1` [Compound 195] ([d2Thi][Bip]F[Phe(4-NH2)]-OH; linker N-4 via Suc), the IC50 is over 100 µM.

`O=C1/C=C\C(=O)N[C@@H](CC2CCCCC2)C(=O)N[C@@H](Cc2ccc(-c3ccccc3)cc2)C(=O)N[C@H](CCc2ccccc2)C(=O)N[C@H](C(=O)O)Cc2ccc(cc2)N1` [Compound 197] ([Cha][Bip][d(hPhe)][Phe(4-NH2)]-OH; linker N-4 via Maleoyl): the IC50 was under 10 µM.

With `O=C1CCC(=O)N[C@H](Cc2cccs2)C(=O)N[C@@H](Cc2ccc(-c3ccccc3)cc2)C(=O)N[C@H](Cc2ccccc2)C(=O)N[C@H](C(=O)N2CCC[C@H]2C(=O)O)Cc2ccc(cc2)N1` [Compound 199] ([d2Thi][Bip][dF][Phe(4-NH2)]P-OH; linker N-4 via Suc), the IC50 is over 100 µM.

Take `O=C1CCC(=O)N[C@H](Cc2cccs2)C(=O)N[C@@H](Cc2ccc(-c3ccccc3)cc2)C(=O)N[C@H](Cc2ccccc2)C(=O)N[C@H](C(=O)N2CCC[C@@H]2C(=O)O)Cc2ccc(cc2)N1` [Compound 200] ([d2Thi][Bip][dF][Phe(4-NH2)][dP]-OH; linker N-4 via Suc): the IC50 was 30 to 100 µM.

Turning to `CN(C)CCCC[C@@H]1NC(=O)[C@@H](Cc2cccs2)NC(=O)CCC(=O)Nc2ccc(cc2)C[C@@H](C(=O)O)NC(=O)[C@@H](Cc2ccccc2)NC1=O` [Compound 203] ([d2Thi][Lys(Me2)][dF][Phe(4-NH2)]-OH; linker N-4 via Suc), the IC50 is over 100 µM.

Consider `O=C1CCC(=O)N[C@H](Cc2cccs2)C(=O)N[C@@H](Cc2ccc(-c3ccccc3)cc2)C(=O)N[C@H](Cc2ccccc2)C(=O)N[C@H](C(=O)NCCO)Cc2ccc(cc2)N1` [Compound 205] ([d2Thi][Bip][dF][Phe(4-NH2)]-NHCH2CH2OH; linker N-4 via Suc), for which the IC50 was over 100 µM.

Take `COC(=O)[C@@H]1Cc2ccc(cc2)NC(=O)CCC(=O)N[C@H](CC(=O)O)C(=O)N[C@@H](Cc2ccc(C(F)(F)F)cc2)C(=O)N[C@H](Cc2ccccc2)C(=O)N1` [Compound 206] ([dD][Phe(4-CF3)][dF][Phe(4-NH2)]-OMe; linker N-4 via Suc): the IC50 is over 100 µM.

As for `O=C1CCC(=O)N[C@H](Cc2cccs2)C(=O)N[C@@H](Cc2cccc(C(F)(F)F)c2)C(=O)N[C@H](Cc2ccccc2)C(=O)N[C@H](C(=O)O)Cc2ccc(cc2)N1` [Compound 208] ([d2Thi][Phe(3-CF3)][dF][Phe(4-NH2)]-OH; linker N-4 via Suc), the IC50 is over 100 µM.

In the case of `O=C1COc2ccc(cc2)C[C@@H](C(=O)O)NC(=O)[C@@H](Cc2ccccc2)NC(=O)[C@@H](Cc2ccc(-c3ccccc3)cc2)NC(=O)[C@@H](Cc2cccs2)N1` [Compound 209], the IC50 was over 100 µM.

Turning to `O=C1COc2ccc(cc2)C[C@@H](C(=O)O)NC(=O)[C@@H](Cc2ccccc2)NC(=O)[C@@H](Cc2ccc(-c3ccccc3)cc2)NC(=O)[C@H](Cc2cccs2)N1` [Compound 210], the IC50 is over 100 µM.

Regarding `O=C1COc2ccc(cc2)C[C@@H](C(=O)O)NC(=O)[C@H](Cc2ccccc2)NC(=O)[C@@H](Cc2ccc(-c3ccccc3)cc2)NC(=O)[C@@H](Cc2cccs2)N1` [Compound 211], the IC50 was 30 to 100 µM.

Take `O=C1COc2ccc(cc2)C[C@@H](C(=O)O)NC(=O)[C@H](Cc2ccccc2)NC(=O)[C@H](Cc2ccc(-c3ccccc3)cc2)NC(=O)[C@@H](Cc2cccs2)N1` [Compound 213]: the IC50 is over 100 µM.

As for `O=C1COc2ccc(cc2)C[C@@H](C(=O)O)NC(=O)[C@H](Cc2ccccc2)NC(=O)[C@@H](Cc2ccc(-c3ccccc3)cc2)NC(=O)[C@H](Cc2cccs2)N1` [Compound 214], the IC50 is under 10 µM.

Take `O=C1COc2ccc(cc2)C[C@@H](C(=O)O)NC(=O)[C@@H](Cc2ccccc2)NC(=O)[C@H](Cc2ccc(-c3ccccc3)cc2)NC(=O)[C@H](Cc2cccs2)N1` [Compound 215]: the IC50 lay within 30 to 100 µM.

For `O=C1COc2ccc(cc2)C[C@@H](C(=O)O)NC(=O)[C@@H](Cc2ccccc2)NC(=O)[C@H](Cc2ccc(C(F)(F)F)cc2)NC(=O)[C@@H](CCc2ccccc2)N1` [Compound 216], the IC50 is over 100 µM.

As to `CC(=O)O[C@H]1C(=O)Nc2ccc(cc2)C[C@H](C(=O)O)NC(=O)[C@@H](CCc2ccccc2)NC(=O)[C@H](Cc2ccc(Br)cc2)NC(=O)[C@@H](Cc2ccccc2)NC(=O)[C@@H]1OC(C)=O` [Compound 218] ([dF][Phe(4-Br)][d(hPhe)][dPhe(4-NH2)]-OH; linker N-4 via Tartaroyl(2R,3R-(OAc)2)), the IC50 lay in the range of 10 to 30 µM.

On to `CC(=O)O[C@H]1C(=O)Nc2ccc(cc2)C[C@H](C(=O)O)NC(=O)[C@@H](CCc2ccccc2)NC(=O)[C@H](Cc2ccc(Br)cc2)NC(=O)[C@@H](Cc2cccs2)NC(=O)[C@@H]1OC(C)=O` [Compound 219] ([d2Thi][Phe(4-Br)][d(hPhe)][dPhe(4-NH2)]-OH; linker N-4 via Tartaroyl(2R,3R-(OAc)2)), for which the IC50 is under 10 µM.

In the case of `CC(=O)O[C@H]1C(=O)Nc2ccc(cc2)C[C@H](C(=O)O)NC(=O)[C@@H](CCc2ccccc2)NC(=O)[C@H](Cc2ccc(Cl)cc2Cl)NC(=O)[C@@H](Cc2ccccc2)NC(=O)[C@@H]1OC(C)=O` [Compound 220] ([dF][Phe(2,4-Cl2)][d(hPhe)][dPhe(4-NH2)]-OH; linker N-4 via Tartaroyl(2R,3R-(OAc)2)), the IC50 was 10 to 30 µM.

On to `CC(=O)O[C@H]1C(=O)Nc2ccc(cc2)C[C@H](C(=O)O)NC(=O)[C@@H](CCc2ccccc2)NC(=O)[C@H](Cc2ccc(Cl)cc2Cl)NC(=O)[C@@H](Cc2cccs2)NC(=O)[C@@H]1OC(C)=O` [Compound 221] ([d2Thi][Phe(2,4-Cl2)][d(hPhe)][dPhe(4-NH2)]-OH; linker N-4 via Tartaroyl(2R,3R-(OAc)2)), for which the IC50 was in the range of 30 to 100 µM.

Consider `CC(=O)O[C@H]1C(=O)Nc2ccc(cc2)C[C@H](C(=O)O)NC(=O)[C@@H](Cc2ccccc2)NC(=O)[C@H](Cc2ccc(-c3ccccc3)cc2)NC(=O)[C@@H](Cc2ccccc2)NC(=O)[C@@H]1OC(C)=O` [Compound 222] ([dF][Bip][dF][dPhe(4-NH2)]-OH; linker N-4 via Tartaroyl(2R,3R-(OAc)2)), for which the IC50 was over 100 µM.

Take `CC(=O)O[C@H]1C(=O)Nc2ccc(cc2)C[C@@H](C(=O)O)NC(=O)[C@@H](Cc2ccccc2)NC(=O)[C@H](Cc2ccc(-c3ccccc3)cc2)NC(=O)[C@@H](Cc2cccs2)NC(=O)[C@@H]1OC(C)=O` [Compound 223] ([d2Thi][Bip][dF][Phe(4-NH2)]-OH; linker N-4 via Tartaroyl(2R,3R-(OAc)2)): the IC50 was in the range of 30 to 100 µM.

On to `O=C1CCC(=O)N[C@H](CCc2ccccc2)C(=O)N[C@@H](Cc2ccc(C(F)(F)F)cc2)C(=O)N[C@@H](Cc2ccco2)C(=O)N[C@H](C(=O)O)Cc2ccc(cc2)N1` [Compound 224] ([d(hPhe)][Phe(4-CF3)][Ala(2-furyl)][Phe(4-NH2)]-OH; linker N-4 via Suc), for which the IC50 is over 100 µM.

With `N#Cc1ccccc1C[C@H]1NC(=O)[C@H](Cc2ccc(C(F)(F)F)cc2)NC(=O)[C@@H](CCc2ccccc2)NC(=O)CCC(=O)Nc2ccc(cc2)C[C@@H](C(=O)O)NC1=O` [Compound 225] ([d(hPhe)][Phe(4-CF3)][dPhe(2-CN)][Phe(4-NH2)]-OH; linker N-4 via Suc), the IC50 was over 100 µM.

On to `O=C1CCC(=O)N[C@H](CCc2ccccc2)C(=O)N[C@@H](Cc2ccc(C(F)(F)F)cc2)C(=O)N[C@H](Cc2ccccc2Cl)C(=O)N[C@H](C(=O)O)Cc2ccc(cc2)N1` [Compound 226] ([d(hPhe)][Phe(4-CF3)][dPhe(2-Cl)][Phe(4-NH2)]-OH; linker N-4 via Suc), for which the IC50 is 10 to 30 µM.

Turning to `O=C1COc2ccc(cc2)C[C@@H](C(=O)N[C@H](Cc2ccccc2)C(=O)O)NC(=O)[C@H](Cc2ccccc2)NC(=O)[C@@H](Cc2ccc(-c3ccccc3)cc2)NC(=O)[C@H](Cc2cccs2)N1` [Compound 227], the IC50 is under 10 µM.

As for `O=C1COc2ccc(cc2)C[C@@H](C(=O)N[C@H](Cc2ccccc2)C(=O)O)NC(=O)[C@H](Cc2ccccc2)NC(=O)[C@H](Cc2ccc(-c3ccccc3)cc2)NC(=O)[C@H](Cc2cccs2)N1` [Compound 228], the IC50 was under 10 µM.

As for `O=C1COc2ccc(cc2)C[C@@H](C(=O)N[C@@H](Cc2ccccc2)C(=O)O)NC(=O)[C@H](Cc2ccccc2)NC(=O)[C@H](Cc2ccc(-c3ccccc3)cc2)NC(=O)[C@H](Cc2cccs2)N1` [Compound 229], the IC50 was under 10 µM.
